Laboratory results reported in the supplement of paper PMC10307832.

Key:
Experiment in all cases: relative viability (nuclei count vs DMSO), 5 days (fraction); higher = more cells survive
[1] = compound: Cc1ccc(NC(=O)c2ccc(CN3CCN(C)CC3)cc2)cc1Nc1nccc(-c2cccnc2)n1 [Imatinib] + CC(C)C[C@H](NC(=O)[C@H](Cc1ccccc1)NC(=O)c1cnccn1)B(O)O [Bortezomib] (partner 0.002 µM)
Summary of the method: (§1)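 Dosing by pin tool came one day after lung cancer cell lines were seeded in 1536-well plates, using either one drug or a fixed anchor-drug dose plus five library-drug doses (not always all listed) in √10 steps. After 5 days, nuclei were counted on 4× images. Relative viability is treated-well nuclei count divided by vehicle-well nuclei count, and values are medians of duplicate plates.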

[2] = compound: Cc1ccc(NC(=O)c2ccc(CN3CCN(C)CC3)cc2)cc1Nc1nccc(-c2cccnc2)n1 [Imatinib] + CS(=O)(=O)N1CCN(Cc2cc3nc(-c4cccc5[nH]ncc45)nc(N4CCOCC4)c3s2)CC1 [Pictilisib] (partner 1 µM)
Summary of the method: as §1

[3] = compound: Cc1ccc(NC(=O)c2ccc(CN3CCN(C)CC3)cc2)cc1Nc1nccc(-c2cccnc2)n1 [Imatinib] + Cc1cc(Nc2cc(N3CCN(C)CC3)nc(Sc3ccc(NC(=O)C4CC4)cc3)n2)n[nH]1 [Tozasertib] (partner 0.1 µM)
Summary of the method: as §1

[4] = compound: Cc1ccc(NC(=O)c2ccc(CN3CCN(C)CC3)cc2)cc1Nc1nccc(-c2cccnc2)n1 [Imatinib] + Nc1nc2[nH]cc(CCc3ccc(C(=O)N[C@@H](CCC(=O)O)C(=O)O)cc3)c2c(=O)[nH]1 [Pemetrexed] (partner 0.2 µM)
Summary of the method: as §1

Row | Cell Line | relative viability ([1]; first compound 0.02 µM) | relative viability ([2]; first compound 0.02 µM) | relative viability ([2]; first compound 0.2 µM) | relative viability ([2]; first compound 0.6325 µM) | relative viability ([2]; first compound 2 µM) | relative viability ([3]; first compound 0.02 µM) | relative viability ([3]; first compound 0.2 µM) | relative viability ([3]; first compound 0.6325 µM) | relative viability ([3]; first compound 2 µM) | relative viability ([4]; first compound 0.02 µM) | relative viability ([4]; first compound 0.2 µM) | relative viability ([4]; first compound 0.6325 µM) | relative viability ([4]; first compound 2 µM) | relative viability ([1]; first compound 0.06325 µM) | relative viability ([1]; first compound 0.2 µM) | relative viability ([1]; first compound 0.6325 µM) | relative viability ([1]; first compound 2 µM) | relative viability ([2]; first compound 0.06325 µM) | relative viability ([3]; first compound 0.06325 µM) | relative viability ([4]; first compound 0.06325 µM)
1 | NCI-H1915 | 1.04 | 0.962 | 1.01 | 0.958 | 0.871 | 0.468 | 0.458 | 0.385 | 0.341 | 0.536 | 0.516 | 0.461 | 0.572 |  |  |  |  |  |  | 
2 | NCI-H1975 | 0.484 | 0.332 | 0.294 | 0.28 | 0.324 | 0.976 | 0.493 | 0.255 | 0.188 | 0.308 | 0.299 | 0.309 | 0.284 | 0.437 | 0.338 | 0.304 | 0.356 | 0.311 | 0.774 | 0.299
3 | NCI-H1993 |  |  | 0.805 | 0.997 | 0.924 | 0.636 | 0.591 | 0.581 | 0.588 | 0.581 | 0.501 | 0.616 | 0.582 |  | 0.954 | 1.11 | 1.02 | 0.861 | 0.632 | 0.44
4 | NCI-H2009 | 1.05 | 0.809 | 0.909 | 0.878 | 0.896 | 0.832 | 0.765 | 0.71 | 0.711 | 1.11 | 1.05 | 0.984 | 0.993 | 0.476 | 1.08 | 1 | 0.906 | 0.429 |  | 1.17
5 | NCI-H2023 | 1.08 | 0.247 | 0.224 | 0.213 | 0.217 | 0.461 | 0.254 | 0.259 | 0.18 | 0.224 | 0.304 |  | 0.27 | 0.425 | 1.16 | 0.925 | 1.02 | 0.191 | 0.319 | 0.318
6 | NCI-H2085 | 1.05 | 0.448 | 0.472 | 0.594 | 0.434 | 0.823 | 0.877 | 0.553 | 0.489 | 0.837 | 0.917 |  | 0.834 | 0.902 | 1.08 | 1.13 | 1.04 | 0.462 | 0.795 | 0.892
7 | NCI-H2087 | 0.868 | 1.13 | 0.796 |  | 0.858 | 0.247 | 0.206 | 0.202 | 0.183 | 0.692 | 0.749 | 0.58 |  | 0.963 | 0.689 | 0.727 | 0.604 | 0.44 |  | 
8 | NCI-H2126 | 1.12 | 0.507 | 0.484 | 0.452 | 0.475 | 0.921 | 0.872 | 0.352 | 0.739 | 0.667 | 0.704 | 0.634 | 0.725 |  | 1.19 | 1.05 | 1.12 |  |  | 0.524
9 | NCI-H2228 | 1.13 | 0.525 | 0.427 | 0.534 | 0.52 | 0.196 | 0.205 | 0.186 | 0.203 | 0.344 | 0.303 | 0.345 | 0.33 | 0.782 | 1.14 | 1.01 | 0.895 | 0.178 |  | 0.389
10 | NCI-H2347 | 0.846 | 0.414 | 0.64 | 0.453 | 0.738 |  | 0.499 | 0.446 | 0.407 | 0.371 | 0.416 | 0.467 | 0.416 |  | 1.04 | 1 | 0.876 | 0.508 | 0.521 | 0.44
11 | NCI-H2405 |  | 0.482 | 0.428 | 0.353 | 0.52 | 0.7 | 0.767 | 0.671 | 0.609 | 1.15 | 1.13 | 1.02 |  | 0.857 | 0.92 | 1.01 | 0.983 |  |  | 1.12
12 | NCI-H3122 | 0.985 | 0.647 | 0.572 | 0.666 | 0.679 | 0.376 | 0.514 |  | 0.383 | 0.202 | 0.198 | 0.185 | 0.2 | 1.06 | 1.04 | 0.96 | 1.05 | 0.551 | 0.373 | 0.211
13 | PC-3 [JPC-3] | 0.887 | 0.715 |  | 0.774 | 0.653 | 0.911 | 0.855 | 0.879 | 0.789 | 1.28 |  | 1.16 | 1.07 |  | 0.832 | 0.864 | 0.711 |  |  | 
14 | PC-14 | 0.923 | 0.69 | 0.874 | 0.688 | 0.859 | 0.665 | 0.592 | 0.591 | 0.516 | 0.143 | 0.135 | 0.131 | 0.137 | 0.911 | 0.96 | 0.949 | 0.844 |  |  | 0.16
15 | RERF-LC-KJ | 1.13 | 0.636 | 0.541 | 0.487 | 0.498 | 0.527 | 0.476 | 0.389 | 0.305 | 0.448 | 0.507 | 0.487 | 0.43 | 1.1 | 1.32 |  | 0.909 | 0.422 | 0.498 | 0.369
16 | SK-LU-1 | 1.59 | 0.738 | 0.633 |  | 0.611 | 0.336 | 0.316 | 0.303 | 0.28 | 1.04 | 1.1 | 1.03 | 1.04 | 1.22 | 1.31 | 1.1 | 1.26 | 0.682 | 0.322 | 1.2
17 | SW 1573 | 1.05 | 0.623 | 0.528 | 0.561 | 0.483 | 0.174 | 0.202 | 0.131 | 0.175 | 0.898 |  | 0.86 | 0.811 | 1.43 | 1.2 | 1.03 | 1.12 | 0.501 | 0.231 | 0.354
18 | UMC-11 | 0.707 | 0.81 | 1 | 1.06 | 0.837 | 0.192 | 0.216 | 0.211 | 0.208 | 0.906 | 0.864 | 0.811 | 0.781 | 0.841 | 0.939 | 0.844 | 0.668 | 0.749 | 0.205 | 0.972
